Test results published in patent US20170096492A1, “DOSAGE AND ADMINISTRATION OF ANTI-IGF-1R, ANTI-ErbB3 BISPECIFIC ANTIBODIES, USES THEREOF AND METHODS OF TREATMENT [sequence]” (Merrimack Pharmaceuticals, Inc., priority 2014, published 2017).
“Also recorded” adds a separate entry of the source.

Legend:
[1] = target: mTOR (Homo sapiens, UniProt P42345); conditions: cited from earlier work
[2] = test system: CAKI-1 xenografts; assay: CAKI-1 xenograft PD, western blot; format: in vivo, mice; conditions: single agent; MM-141 30 mpk i.p. or everolimus 10 mpk orally, 2 doses; tumors harvested 24 hours after second dose
Experimental: For the PD study results shown in FIGS. 3A-B and FIGS. 5A-C, NOD/SCID female mice were inoculated with 12×10^6 CAKI-1 or 10×10^6 SK-ES-1 cells, respectively, in 1:1 Matrigel® suspension. […] Tumors were harvested 24 hours after the second dose of drug; lysates were generated and subjected to western blot analysis.

[3] = test system: HepG2 hepatocellular carcinoma cells; assay: HepG2 western blot, sorafenib with or without MM-141; format: cell-based; conditions: sorafenib 5 μM, 2 hours
Experimental: HepG2 cells were plated on 12 well dishes (3×10^5 cells per well) in 10% serum-containing media and incubated overnight. […] Following treatment, cells were harvested in lysis buffer containing protease and phosphatase inhibitors and analyzed by western blotting.

[4] = test system: CFPAC-1 pancreatic cancer cells; assay: pAKT (Ser473) ELISA after chemotherapy and ligand stimulation; format: cell-based, human; conditions: then HRG 5 nM or IGF-1 50 nM 15 minutes
Experimental: (§1) CFPAC-1 pancreatic cancer cells were seeded at 65% confluence in 10% serum-containing medium on 96-well plates overnight. […] Following incubation, cells were treated with (FIG. 24A) HRG (5 nM) or (FIG. 24B) IGF-1 (50 nM) for 15 minutes, where indicated. After treatment, cells were harvested and protein lysates generated. Changes in pAKT (Ser473) levels across all treatments were evaluated by pAKT ELISA, respectively. FIGS. 24(A-B) are bar graphs showing pAKT levels relative to ligand alone stimulated signals, which were normalized to 1.
as §1, with “25A)” for “24A)”, “25B)” for “24B)”, “25(A-B)” for “24(A-B)”

[5] = test system: CFPAC-1 human pancreatic cancer cells; assay: HRG mRNA expression by real time PCR; format: cell-based; conditions: 24 hours
Experimental: CFPAC-1 human pancreatic cancer cells were serum-starved by plating the cells in 2% serum-containing medium overnight, followed by treatment with vehicle, 500 nM gemcitabine, or 50 nM paclitaxel for 24 hours. Post-treatment, cell lysates were harvested, mRNA extracted, cDNA generated and changes in HRG mRNA expression evaluated by real time PCR. Bar graphs represent mean HRG mRNA expression relative to the geometric mean of three housekeeping genes (protein phosphatase 2 catalytic subunit alpha (PPP2CA), ribosomal protein L4 (RPL4), and glucuronidase beta (GUSB)), normalized to vehicle control.

[6] = test system: DU145 prostate cancer-derived xenograft tumors; assay: DU145 xenograft PD, western blot; format: in vivo, mice; conditions: docetaxel 20 mpk i.p. single dose, tumors harvested Day 4
Description: (§2) For the PD studies described in FIGS. 6A-B and FIGS. 9 A-B, nu/nu female mice were inoculated with 8×10^6 DU145 or 5×10^6 BxPC-3 cells, respectively, in 1:1 Matrigel® suspension. […] Tumor lysates were generated and subjected to western blot analysis.

[7] = test system: BxPC-3 derived xenograft tumors; assay: BxPC-3 xenograft PD, western blot; format: in vivo, mice; conditions: gemcitabine 150 mpk i.p. Day 0, 6; tumors harvested Day 7
Description: as §2

COc1ccc(-c2ccc3c(N4CCOC[C@@H]4C)nc(N4CCOC[C@@H]4C)nc3n2)cc1CO [AZD8055]
selectivity against PI3K isoforms and ATM/DNA-PK [1]: ~1,000 fold

CO[C@H]1C[C@@H]2CC[C@@H](C)[C@@](O)(O2)C(=O)C(=O)N2CCCC[C@H]2C(=O)O[C@H]([C@H](C)C[C@@H]2CC[C@@H](OCCO)[C@H](OC)C2)CC(=O)[C@H](C)/C=C(\C)[C@@H](O)[C@@H](OC)C(=O)[C@H](C)C[C@H](C)/C=C/C=C/C=C/1C [everolimus, Everolimus, reference compound]
total ErbB2 [2]: upregulation
total IGF-1R [2]: upregulation

CNC(=O)c1cc(Oc2ccc(NC(=O)Nc3ccc(Cl)c(C(F)(F)F)c3)cc2)ccn1 [sorafenib, Sorafenib]
ErbB3 level [3]: up-regulated; also recorded: upregulation of ErbB3 activity
pAKT level [3]: up-regulated

CC(=O)O[C@H]1C(=O)[C@@]2(C)[C@H]([C@H](OC(=O)c3ccccc3)[C@]3(O)C[C@H](OC(=O)[C@H](O)[C@@H](NC(=O)c4ccccc4)c4ccccc4)C(C)=C1C3(C)C)[C@]1(OC(C)=O)CO[C@@H]1C[C@@H]2O [paclitaxel, Paclitaxel, reference compound]
sensitivity to ligands, pAKT (Ser473) ([4]; paclitaxel 100 nM 24 hours): increased sensitivity to IGF-1
HRG mRNA relative to vehicle control ([5]; 50 nM paclitaxel): at least doubles

CC(=O)O[C@@]12CO[C@@H]1C[C@H](O)[C@@]1(C)C(=O)[C@H](O)C3=C(C)[C@@H](OC(=O)[C@H](O)[C@@H](NC(=O)OC(C)(C)C)c4ccccc4)C[C@@](O)([C@@H](OC(=O)c4ccccc4)[C@H]21)C3(C)C [docetaxel, Docetaxel]
ErbB3 protein expression level [6]: up-regulated
IGF-1R protein expression level [6]: up-regulated

Nc1ccn([C@@H]2O[C@H](CO)[C@@H](O)C2(F)F)c(=O)n1 [gemcitabine, Gemcitabine]
total ErbB3 [7]: up-regulation and activation
total IGF-1R [7]: up-regulation and activation
sensitivity to ligands, pAKT (Ser473) ([4]; gemcitabine 1 μM 24 hours): increased sensitivity to HRG and IGF-1
HRG mRNA increase relative to vehicle control ([5]; 500 nM gemcitabine): about 22 fold
